Broadly, the EC50 is the concentration at which the effect is half-maximal.

Structures are written as SMILES. Bounds are passed on as bounds.

From ChEMBL document CHEMBL3632577, “Lead optimization of the VU0486321 series of mGlu1 PAMs. Part 1: SAR of modifications to the central aryl core” (Bioorg Med Chem Lett, 2015) come the findings set out here.

Series [1] has as its target T1, Metabotropic glutamate receptor 1 (Homo sapiens, UniProt Q13255). Put plainly: Positive allosteric modulation of human mGluR1 by calcium mobilization assay. Format: functional. (In general: Calcium flux is commonly read through the fluorescence of an indicator in the cells.)
Target sequence in this assay (Q13255 whole entry): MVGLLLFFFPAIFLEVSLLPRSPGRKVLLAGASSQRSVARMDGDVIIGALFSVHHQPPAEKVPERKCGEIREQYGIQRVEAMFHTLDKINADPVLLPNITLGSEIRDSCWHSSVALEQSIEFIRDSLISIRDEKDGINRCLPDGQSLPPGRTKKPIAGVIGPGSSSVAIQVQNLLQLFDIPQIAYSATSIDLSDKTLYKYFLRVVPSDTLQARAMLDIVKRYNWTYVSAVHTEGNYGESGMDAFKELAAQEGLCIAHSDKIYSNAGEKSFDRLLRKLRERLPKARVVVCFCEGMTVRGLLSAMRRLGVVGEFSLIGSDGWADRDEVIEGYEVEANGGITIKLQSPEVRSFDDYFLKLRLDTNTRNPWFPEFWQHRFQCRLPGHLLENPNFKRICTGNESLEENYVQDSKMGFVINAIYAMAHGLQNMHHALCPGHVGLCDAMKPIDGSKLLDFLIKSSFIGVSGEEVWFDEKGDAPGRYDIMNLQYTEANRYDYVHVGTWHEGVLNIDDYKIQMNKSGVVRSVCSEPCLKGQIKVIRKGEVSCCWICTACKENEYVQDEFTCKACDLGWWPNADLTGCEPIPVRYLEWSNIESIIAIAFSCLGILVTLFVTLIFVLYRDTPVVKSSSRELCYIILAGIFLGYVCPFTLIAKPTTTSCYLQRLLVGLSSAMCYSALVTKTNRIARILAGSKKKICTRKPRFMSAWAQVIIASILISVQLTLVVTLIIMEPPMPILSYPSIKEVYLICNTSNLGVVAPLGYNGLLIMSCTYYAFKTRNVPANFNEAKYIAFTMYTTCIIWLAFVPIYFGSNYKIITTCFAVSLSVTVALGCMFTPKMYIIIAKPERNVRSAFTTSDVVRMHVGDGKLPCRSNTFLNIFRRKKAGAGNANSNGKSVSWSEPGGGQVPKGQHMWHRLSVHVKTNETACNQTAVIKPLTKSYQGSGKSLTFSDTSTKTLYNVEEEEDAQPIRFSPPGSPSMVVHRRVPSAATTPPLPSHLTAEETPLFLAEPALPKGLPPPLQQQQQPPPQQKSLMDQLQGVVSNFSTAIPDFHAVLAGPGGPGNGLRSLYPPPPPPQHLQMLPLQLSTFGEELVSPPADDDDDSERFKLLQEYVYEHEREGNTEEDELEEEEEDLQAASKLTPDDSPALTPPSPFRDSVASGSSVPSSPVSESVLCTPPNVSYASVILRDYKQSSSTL
Series [2] relates to Plasma. The experiment in a line: Fraction unbound in rat plasma. The series is classed as ADME, cell-free.
In series [3] the test system is Plasma. Put plainly: Fraction unbound in human plasma. The series is classed as ADME, cell-free.
In series [4] the target is T2, Metabotropic glutamate receptor 4 (Homo sapiens, UniProt Q14833). The experiment in a line: Positive allosteric modulation of human mGluR4 by calcium mobilization assay. The series is classed as functional.
In series [5] the test system is Brain. The experiment in a line: Fraction unbound in rat brain. Format: ADME, tissue-based.
The subject of series [6] is Rattus norvegicus. The experiment in a line: Ratio of drug level in plasma to brain in rat at 0.2 mg/kg after 15 mins by cassette study. The conditions noted are these: in vivo, 0.25 h.
Series [7] has as its target T1, Metabotropic glutamate receptor 1. The experiment in a line: Positive allosteric modulation of human mGluR1 by calcium mobilization assay relative to control. The series is classed as functional.
Target sequence in this assay (Q13255 19-1194 limits assumed): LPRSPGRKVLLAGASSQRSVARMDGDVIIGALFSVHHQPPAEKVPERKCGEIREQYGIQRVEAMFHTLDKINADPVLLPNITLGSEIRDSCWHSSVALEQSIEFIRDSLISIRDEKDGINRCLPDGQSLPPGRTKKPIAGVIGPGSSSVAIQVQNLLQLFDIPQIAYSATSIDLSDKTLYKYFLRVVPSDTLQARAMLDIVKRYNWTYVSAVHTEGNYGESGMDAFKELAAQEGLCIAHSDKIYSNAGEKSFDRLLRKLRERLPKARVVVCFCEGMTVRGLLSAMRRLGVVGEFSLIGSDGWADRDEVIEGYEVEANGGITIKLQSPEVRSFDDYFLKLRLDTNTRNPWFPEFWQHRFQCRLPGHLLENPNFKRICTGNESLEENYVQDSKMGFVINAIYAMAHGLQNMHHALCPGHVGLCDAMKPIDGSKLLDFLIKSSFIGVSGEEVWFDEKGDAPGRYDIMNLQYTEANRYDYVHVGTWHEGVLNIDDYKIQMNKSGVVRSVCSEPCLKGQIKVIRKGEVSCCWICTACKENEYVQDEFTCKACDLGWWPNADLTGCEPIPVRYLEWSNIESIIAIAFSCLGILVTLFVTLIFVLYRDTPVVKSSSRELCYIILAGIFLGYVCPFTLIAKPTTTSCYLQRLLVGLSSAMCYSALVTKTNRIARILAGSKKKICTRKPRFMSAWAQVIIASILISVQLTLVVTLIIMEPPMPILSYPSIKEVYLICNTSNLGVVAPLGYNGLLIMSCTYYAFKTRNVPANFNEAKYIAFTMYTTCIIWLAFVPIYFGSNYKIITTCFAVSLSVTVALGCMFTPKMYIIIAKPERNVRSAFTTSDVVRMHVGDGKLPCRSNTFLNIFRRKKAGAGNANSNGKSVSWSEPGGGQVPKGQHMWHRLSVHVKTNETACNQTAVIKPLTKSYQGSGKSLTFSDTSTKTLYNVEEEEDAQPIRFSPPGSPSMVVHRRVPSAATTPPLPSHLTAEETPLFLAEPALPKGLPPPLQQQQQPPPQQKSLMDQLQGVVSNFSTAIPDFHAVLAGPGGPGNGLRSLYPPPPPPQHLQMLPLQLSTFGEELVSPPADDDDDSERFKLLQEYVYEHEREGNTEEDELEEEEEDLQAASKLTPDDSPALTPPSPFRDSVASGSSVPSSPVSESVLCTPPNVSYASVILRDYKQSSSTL
Series [8] is filed under the species Homo sapiens. The experiment in a line: Selectivity ratio of EC50 for human mGluR4 to EC50 for human mGluR1.
Series [9] addresses T2, Metabotropic glutamate receptor 4. Put plainly: Positive allosteric modulation of human mGluR4 by calcium mobilization assay relative to PHCCC. Format: functional.

T2 sequence (Q14833 whole entry): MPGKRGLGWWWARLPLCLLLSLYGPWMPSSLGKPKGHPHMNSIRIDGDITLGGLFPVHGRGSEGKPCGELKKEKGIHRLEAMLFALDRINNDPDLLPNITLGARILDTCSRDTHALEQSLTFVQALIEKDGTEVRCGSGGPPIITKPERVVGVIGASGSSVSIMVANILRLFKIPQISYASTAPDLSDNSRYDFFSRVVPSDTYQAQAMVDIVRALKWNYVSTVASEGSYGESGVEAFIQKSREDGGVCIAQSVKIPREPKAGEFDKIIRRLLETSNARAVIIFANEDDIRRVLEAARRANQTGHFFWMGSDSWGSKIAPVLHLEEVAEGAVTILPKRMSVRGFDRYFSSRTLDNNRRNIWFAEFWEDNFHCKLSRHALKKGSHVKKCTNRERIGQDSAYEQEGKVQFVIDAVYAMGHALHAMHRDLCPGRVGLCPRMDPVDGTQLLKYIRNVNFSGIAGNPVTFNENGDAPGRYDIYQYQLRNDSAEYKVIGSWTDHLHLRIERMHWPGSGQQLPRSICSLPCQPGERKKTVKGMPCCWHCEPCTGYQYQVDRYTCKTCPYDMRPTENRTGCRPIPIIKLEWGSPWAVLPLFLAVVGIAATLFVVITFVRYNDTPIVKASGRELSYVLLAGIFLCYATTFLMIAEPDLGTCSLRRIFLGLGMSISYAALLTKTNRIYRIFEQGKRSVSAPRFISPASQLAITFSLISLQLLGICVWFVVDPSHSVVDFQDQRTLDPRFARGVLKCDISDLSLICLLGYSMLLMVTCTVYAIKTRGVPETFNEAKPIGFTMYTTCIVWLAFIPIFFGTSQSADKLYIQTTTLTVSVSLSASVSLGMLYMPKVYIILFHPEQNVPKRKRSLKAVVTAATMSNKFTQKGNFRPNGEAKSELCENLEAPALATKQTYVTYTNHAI

For the compound `Cc1ccoc1C(=O)Nc1ccc(N2C(=O)c3ccccc3C2=O)cc1F`, the EC50 is 0.0126 µM in series [1], 0.013 µM in series [1] (read-out: EC50) and above 10 µM in series [4]. For the same compound, the Fu in series [2], in [3] and in series [5] was below 1% in each case. Moreover, in [6], the Ratio came to 1.57. Also, the %max in series [7] is 84%.
For the compound `Cc1ccoc1C(=O)Nc1ccc(N2C(=O)c3ccccc3C2=O)cc1Cl`, the EC50 in series [1] was 0.0288 µM; in series [1] (read-out: EC50), 0.029 µM; in series [4] it was above 10 µM. Besides, the Fu in [2], in series [3] and in series [5] was below 1% each time. Also, the Ratio in series [6] amounted to 0.12. In addition, the %max in series [7] was determined as 68%.
For `Cc1cc(NC(=O)c2occc2C)ccc1N1C(=O)c2cccc(F)c2C1=O`, the EC50 in series [1] was 0.049 µM; in series [1] (read-out: EC50), 0.049 µM; in series [4] it was 1.1 µM. Further, in series [8], the Ratio EC50 worked out at 22.4. Also, the %max amounted to 95% in [7] and 86% in [9].
As for `COc1cc(NC(=O)c2occc2C)ccc1N1C(=O)c2cccc(C)c2C1=O`, the EC50 in series [1] is 0.049 µM; in [1] (read-out: EC50), 0.049 µM; in series [4], 0.882 µM. Also, the Ratio EC50 in series [8] worked out at 18. The values for the %max in [7] and in series [9] were 94% and 107%, respectively.
